Measured values as given in PubChem BioAssay AID2060486 (Molecular Pharmacology Branch, DTP, NCI, 2025).

Tested on: IGROV1 complex spheroids (HUVEC, MSC), viability % test/control
Experiment: Anticancer human tumor IGROV1 cell line growth inhibition [GQUAD];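 also: spheroids exposed to compounds for 7 days before readout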
Conditions: for IC50: curve of first compound; for viability, T/C: stronger effect = lower value
Description: DNA G-quadruplex Stabilizer Agents in Combinations in Complex Spheroids
A high-throughput screen of multi-cell type tumor spheroids was designed to identify active combinations of DNA G-quadruplex stabilizer agents and targeted small molecules. Complex spheroids include a stromal component modeled by human endothelial cells (HUVEC) and fibroblasts modeled by human mesenchymal stem cells (MSCs). The concentration ranges selected for each drug and investigational agent were based upon clinically achievable concentrations if the clinical Cmax of the agent was known.
Compounds. The drugs and investigational agents: pidnarulex (CX-5461; NSC782164), APTO-253 (NSC789042), BRACO-19 (NSC847499), peposertib (NSC802822), ceralasertib (NSC780249), elimusertib (NSC800525), camonsertib (NSC841442), AZD-1390 (NSC803789), olaparib (NSC753686), talazoparib (NSC767125), ART-558 (NSC835418), sotorasib (NSC818433), MRTX-1133 (NSC836407), SN-38 (NSC673596), topotecan (NSC609699), etoposide (NSC141540), doxorubicin (NSC123127), gemcitabine (NSC613327), 5-fluorouracil (NSC19893), paclitaxel (NSC125973), vemurafenib (NSC761431), panobinostat (NSC761190), R-306465 (JNJ-16241199; NSC773264), adavosertib (NSC754352), TP-3654 (NSC805149), carboplatin (NSC241240), KSQ-4279 (NSC840948), and staurosporine (NSC755774) were obtained from the National Cancer Institute (NCI) Developmental Therapeutics Program Chemical Repository (34). The FDA-approved anticancer drug set is available from the NCI Developmental Therapeutics Program. […] The stock solutions were prepared in dimethyl sulfoxide (DMSO, Sigma-Aldrich, St. Louis, MO, cat. D2650) at 800-fold the tested concentration and stored at -70 degrees C prior to their use. All drugs and investigational agents were tested over a range starting from a high concentration at or near the clinical Cmax and decreasing in half-log increments. If the clinical Cmax for an agent had not been determined, the highest concentration tested was 10 microM.
2.3 Cell Culture. All cells were maintained in an incubator at 37 degrees C and 5% CO2 with 95% humidity. The PDC lines were cultured according to standard operating procedures established by the NCI PDMR. All PDCs were thawed and cultured in Matrigel-coated flasks prepared with a working solution of 1X Ham's F-12 nutrient mix, without supplementation (Invitrogen, cat. 11765054), 100 U/mL penicillin-streptomycin (Invitrogen, cat. 15140122), and 2.5% Matrigel (Corning Inc., cat. 354248) for the first three passages. The 857933-349-R-J2-PDC line was cultured in 6C/Colon 1B media, which includes advanced DMEM/F-12 (Thermo Fisher Scientific, cat. 12634028), 10 mM HEPES (Thermo Fisher Scientific, cat. 15630080), 1X GlutaMAX supplement (Thermo Fisher Scientific, cat. 35050061), 0.1 mg/mL primocin (InvivoGen, cat. ant-pm-2), 10% defined fetal bovine serum, heat inactivated (HyClone Laboratories Inc., cat. SH30070.03HI), 50% L-WRN conditioned media (ATCC, cat. CRL-3276), 1.25 mM N-Acetyl-L-cysteine (Sigma-Aldrich, cat. A9165), 10 mM nicotinamide (Sigma-Aldrich, cat. N0636), 1X B-27 supplement (Thermo Fisher Scientific, cat. 17504044), 1X N-2 supplement (Thermo Fisher Scientific, cat. 17502048), 10 microM Y-27632 dihydrochloride (Tocris Bioscience, cat. 1254), and 50 ng/mL human EGF recombinant protein (Thermo Fisher Scientific, cat. PHG0311). The 485176-168-R4-J1-PDC line was cultured in Panc media, which includes all 6C/Colon 1B media components plus 100 ng/mL human FGF-10 (Thermo Fisher Scientific, cat. 100-26), 500 nM SB-431542 (Selleckchem, cat. S1067), and gastrin (Tocris, cat. 3006).
[…]

Compound: C#Cc1c(F)ccc2cc(O)cc(-c3ncc4c(N5CC6CCC(C5)N6)nc(OCC56CCCN5CC(F)C6)nc4c3F)c12 (configuration not stated) + Cc1[nH]c2ccc(F)cc2c1-c1nc2c3cccnc3c3ncccc3c2[nH]1
- IC50 (second compound 0.0316 µM): > 10 µM
- IC50 (second compound 0.1 µM): > 10 µM
- IC50 (second compound 0.316 µM): 3.92 µM
- IC50 (second compound 1 µM): < 0.0316 µM
- IC50 (second compound 3.16 µM): < 0.0316 µM
- IC50 (second compound 10 µM): < 0.0316 µM
- viability, T/C (second compound 0.0316 µM, first compound 0.0316 µM): 101%
- viability, T/C (second compound 0.0316 µM, first compound 0.1 µM): 76.3%
- viability, T/C (second compound 0.0316 µM, first compound 0.316 µM): 99.2%
- viability, T/C (second compound 0.0316 µM, first compound 1 µM): 78.7%
- viability, T/C (second compound 0.0316 µM, first compound 3.16 µM): 89.2%
- viability, T/C (second compound 0.0316 µM, first compound 10 µM): 60.1%
- viability, T/C (second compound 0.1 µM, first compound 0.0316 µM): 88.4%
- viability, T/C (second compound 0.1 µM, first compound 0.1 µM): 70.3%
- viability, T/C (second compound 0.1 µM, first compound 0.316 µM): 68.4%
- viability, T/C (second compound 0.1 µM, first compound 1 µM): 81.6%
- viability, T/C (second compound 0.1 µM, first compound 3.16 µM): 91.4%
- viability, T/C (second compound 0.1 µM, first compound 10 µM): 62.2%
- viability, T/C (second compound 0.316 µM, first compound 0.0316 µM): 66.2%
- viability, T/C (second compound 0.316 µM, first compound 0.1 µM): 40%
- viability, T/C (second compound 0.316 µM, first compound 0.316 µM): 69.3%
- viability, T/C (second compound 0.316 µM, first compound 1 µM): 58.6%
- viability, T/C (second compound 0.316 µM, first compound 3.16 µM): 58.7%
- viability, T/C (second compound 0.316 µM, first compound 10 µM): 12.7%
- viability, T/C (second compound 1 µM, first compound 0.0316 µM): 2.66%
- viability, T/C (second compound 1 µM, first compound 0.1 µM): 3.87%
- viability, T/C (second compound 1 µM, first compound 0.316 µM): 2.81%
- viability, T/C (second compound 1 µM, first compound 1 µM): 3.06%
- viability, T/C (second compound 1 µM, first compound 3.16 µM): 2.68%
- viability, T/C (second compound 1 µM, first compound 10 µM): 1.82%
- viability, T/C (second compound 3.16 µM, first compound 0.0316 µM): 3.12%
- viability, T/C (second compound 3.16 µM, first compound 0.1 µM): 3.21%
- viability, T/C (second compound 3.16 µM, first compound 0.316 µM): 3.09%
- viability, T/C (second compound 3.16 µM, first compound 1 µM): 2.69%
- viability, T/C (second compound 3.16 µM, first compound 3.16 µM): 2.86%
- viability, T/C (second compound 3.16 µM, first compound 10 µM): 1.68%
- viability, T/C (second compound 10 µM, first compound 0.0316 µM): 2.87%
- viability, T/C (second compound 10 µM, first compound 0.1 µM): 3.1%
- viability, T/C (second compound 10 µM, first compound 0.316 µM): 3.6%
- viability, T/C (second compound 10 µM, first compound 1 µM): 2.65%
- viability, T/C (second compound 10 µM, first compound 3.16 µM): 2.34%
- viability, T/C (second compound 10 µM, first compound 10 µM): 1.27%
